Laboratory results reported in ChEMBL document CHEMBL1122286, “Heterocyclic oxyacetic acid diuretics: indazole, benzisothiazole, and benzisothiazole 1,1-dioxide analogues of [[7-chloro-3-(2-fluorophenyl)-1,2-benzisoxazol-6-yl]oxy]acetic acid” (1983).

Experiments:
Assay type in all cases: functional, Urine
Mus musculus [1] = experiment: Compound was tested for diuretic activity after oral administration of 64 mg/kg in saline-loaded mice (vehicle control value=0.05)
Mus musculus [2] = experiment: Compound was tested for diuretic activity after oral administration of 64 mg/kg in saline-loaded mice (vehicle control value=0.6)
Mus musculus [3] = experiment: Compound was tested for diuretic activity per os in saline-loaded mice at 64 mg/kg. (vehicle control value=1.22)
Mus musculus [4] = experiment: Compound was tested for diuretic activity after oral administration of 64 mg/kg in saline-loaded mice (vehicle control value=0.8)
Mus musculus [5] = experiment: Compound was tested for diuretic activity after oral administration of 64 mg/kg in saline-loaded mice vehicle control value=0.72)
Mus musculus [6] = experiment: Compound was tested for diuretic activity after oral administration of 64 mg/kg in saline-loaded mice (vehicle control value=0.42)
Mus musculus [7] = experiment: Compound was tested for diuretic activity after oral administration of 64 mg/kg in saline-loaded mice (vehicle control value=0.68)
Mus musculus [8] = experiment: Compound was tested for diuretic activity after oral administration of 64 mg/kg in saline-loaded mice (vehicle control value=0.27)
Mus musculus [9] = experiment: Compound was tested for diuretic activity after oral administration of 64 mg/kg in saline-loaded mice (vehicle control value=0.56)
Mus musculus [10] = experiment: Compound was tested for diuretic activity after oral administration of 64 mg/kg in saline-loaded mice vehicle control value=0.25)
Mus musculus [11] = experiment: Compound was tested for diuretic activity after oral administration of 64 mg/kg in saline-loaded mice (vehicle control value=0.3)
Mus musculus [12] = experiment: Compound was tested for diuretic activity after oral administration of 64 mg/kg in saline-loaded mice (vehicle control value=0.2)
Mus musculus [13] = experiment: Compound was tested for diuretic activity after oral administration of 64 mg/kg in saline-loaded mice (vehicle control value=0.1)

SMILES: O=C(O)COc1ccc2c(-c3ccccc3F)noc2c1Cl
- Diuretic activity (Mus musculus [1]): 10 m equiv [Na+] 5hr-1kg-1

SMILES: O=C(O)COc1ccc2c(-c3ccccc3Cl)noc2c1Cl
- Diuretic activity (Mus musculus [2]): 9.1 m equiv [Na+] 5hr-1kg-1

SMILES: O=C(O)COc1ccc2c(-c3ccccc3)nsc2c1Cl
- Diuretic activity (Mus musculus [3]): 2.28 (m equiv [Na+]) 5hr-1 kg-1

SMILES: O=C(O)COc1ccc(C2=NS(=O)(=O)c3ccccc32)c(Cl)c1Cl
- Diuretic activity (Mus musculus [4]): 2.03 m equiv [Na+] 5hr-1kg-1

SMILES: O=C(O)COc1ccc(-c2nsc3ccccc23)c(Cl)c1Cl
- Diuretic activity (Mus musculus [5]): 1.18 m equiv [Na+] 5hr-1kg-1

SMILES: O=C(O)COc1ccc2c(c1Cl)S(=O)(=O)N=C2c1ccccc1F
- Diuretic activity (Mus musculus [4]): 0.18 m equiv [Na+] 5hr-1kg-1

SMILES: Cn1nc(-c2ccc(OCC(=O)O)c(Cl)c2Cl)c2ccccc21
- Diuretic activity (Mus musculus [6]): 0.61 m equiv [Na+] 5hr-1kg-1

SMILES: Cn1nc(-c2ccccc2Cl)c2ccc(OCC(=O)O)c(Cl)c21
- Diuretic activity (Mus musculus [7]): 2.29 m equiv [Na+] 5hr-1kg-1

SMILES: O=C(O)COc1ccc2c(-c3ccccc3F)[nH]nc2c1Cl
- Diuretic activity (Mus musculus [8]): 0.45 m equiv [Na+] 5hr-1kg-1

SMILES: O=C(O)COc1ccc(-c2[nH]nc3ccccc23)c(Cl)c1Cl
- Diuretic activity (Mus musculus [9]): 0.65 m equiv [Na+] 5hr-1kg-1

SMILES: O=C(O)COc1ccc2c(-c3ccccc3F)nsc2c1Cl
- Diuretic activity (Mus musculus [10]): 4.59 m equiv [Na+] 5hr-1kg-1

SMILES: C=C(CC)C(=O)c1ccc(OCC(=O)O)c(Cl)c1Cl [ETHACRYNIC ACID]
- Diuretic activity (Mus musculus [11]): 4.14 (m equiv [Na+]) kg-1

SMILES: CC1(c2ccccc2)Cc2cc(OCC(=O)O)c(Cl)c(Cl)c2C1=O (centres undefined) [INDACRINONE]
- Diuretic activity (Mus musculus [12]): 7.6 m equiv [Na+] 5hr-1kg-1

SMILES: O=C(O)COc1ccc(C(=O)c2cccs2)c(Cl)c1Cl [TICRYNAFEN]
- Diuretic activity (Mus musculus [13]): 3.31 m equiv [Na+] 5hr-1kg-1
